Measured values taken from US20220106304A1, “Transcription Factor BRN2 Inhibitory Compounds as Therapeutics and Methods for Their Use” (The University of British Columbia, priority 2018, published 2022).

Target: T1, BRN2 (Homo sapiens, UniProt P20265)
T1 sequence (P20265 1-443): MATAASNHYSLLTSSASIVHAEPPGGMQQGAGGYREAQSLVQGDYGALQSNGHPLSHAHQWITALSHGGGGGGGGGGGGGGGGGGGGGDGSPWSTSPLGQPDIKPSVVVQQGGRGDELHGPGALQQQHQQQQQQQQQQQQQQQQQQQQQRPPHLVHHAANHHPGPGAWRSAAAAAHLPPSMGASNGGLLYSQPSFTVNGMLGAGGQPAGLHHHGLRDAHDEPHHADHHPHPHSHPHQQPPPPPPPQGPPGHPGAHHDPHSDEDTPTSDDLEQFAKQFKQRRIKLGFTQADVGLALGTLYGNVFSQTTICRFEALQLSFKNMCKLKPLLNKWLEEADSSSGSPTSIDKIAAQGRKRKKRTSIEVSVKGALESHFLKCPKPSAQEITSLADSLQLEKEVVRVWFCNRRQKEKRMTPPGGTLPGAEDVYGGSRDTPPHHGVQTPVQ
Assay: cell-based
Conditions: read-out: % BRN2 Inhibition (10 μM), 10 μM compound, 24 hours, 42D^ENZR cells stably expressing BRN2-luciferase reporter; negative = activation
Description: Decreased expression of luciferase protein is validated via western blot to confirm downregulation and avoid false positive molecules that inhibit luciferase protein activity and not BRN2-drive luciferase expression. Molecules are prioritized by their inhibition potency to measure direct interaction with BRN2 in Step 2.
In TABLES 1 and 2, when a single value is mentioned in columns Met Stab % and T½, it refers to compound's stability in MLM and when two values are given they represent HLM/MLM. There is a distinction in TABLES 1 and 2 difference between “Active” and “Specific” or “Specificity”. Compounds are first tested to quantify inhibition of BRN2 transcriptional activity in a luciferase assay to determine “Activity” at […] and 30 μM concentrations. […] Where data is not available “na” is inserted. Where data has yet to be calculated the notation “nc” is used.

SMILES | inhibition at 10 µM [%]
Clc1ccc2nc(-c3ccc(-c4ccccc4)o3)[nH]c2c1 [VPC-18-92, 6-chloro-2-(5-phenylfuran-2-yl)-1H-benzo[d]imidazole] | 83
Fc1ccc(-c2nc(-c3nc4ccc(C(F)(F)F)cc4o3)cs2)o1 [VPC-18-93] | -9.9
Clc1ccc2cc(-c3csc(-c4ccn[nH]4)n3)oc2c1 [VPC-18-96, 4-(6-chlorobenzofuran-2-yl)-2-(1H-pyrazol-5-yl)thiazole] | 83.5
FC(F)(F)c1ccc2cc(-c3csc(-c4ncco4)n3)oc2c1 [VPC-18-98, 2-(4-(6-(trifluoromethyl)benzofuran-2-yl)thiazol-2-yl)oxazole] | 84
Clc1ccc2cc(-c3csc(-c4ncco4)n3)oc2c1 [VPC-18-99] | 29.3
Fc1sc(-c2ccco2)nc1-c1cc2ccc(C(F)(F)F)cc2o1 [VPC-18-100] | 8.8
CN1CCN(c2ccc(-c3nc4ccc(C(F)(F)F)cc4n3C)o2)CC1 [VPC-18-102] | 22.6
FC(F)(F)n1c(-c2ccc(-c3ccccc3)o2)nc2ccccc21 [VPC-18-103] | 88.5
FC(F)(F)c1ccc2cc(-c3csc(-c4cocn4)n3)oc2c1 [VPC-18-106] | 90.6
Clc1ccc2nc(-c3csc(-c4ccco4)n3)oc2c1 [VPC-18-107] | 36.9
O=C1CCN(c2nc(-c3cc4ccc(Cl)cc4o3)cs2)C1 [VPC-18-109] | 81.7

Same assay, conditions: read-out: % BRN2 Inhibition (30 μM), 30 μM compound, 24 hours, 42D^ENZR cells stably expressing BRN2-luciferase reporter; negative = activation

SMILES | inhibition at 30 µM [%]
Clc1ccc2nc(-c3ccc(-c4ccccc4)o3)[nH]c2c1 [VPC-18-92, 6-chloro-2-(5-phenylfuran-2-yl)-1H-benzo[d]imidazole] | 98.4
Fc1ccc(-c2nc(-c3nc4ccc(C(F)(F)F)cc4o3)cs2)o1 [VPC-18-93] | 30.2
Clc1ccc2cc(-c3csc(-c4ccn[nH]4)n3)oc2c1 [VPC-18-96, 4-(6-chlorobenzofuran-2-yl)-2-(1H-pyrazol-5-yl)thiazole] | 92.5
FC(F)(F)c1ccc2cc(-c3csc(-c4ncco4)n3)oc2c1 [VPC-18-98, 2-(4-(6-(trifluoromethyl)benzofuran-2-yl)thiazol-2-yl)oxazole] | 86
Clc1ccc2cc(-c3csc(-c4ncco4)n3)oc2c1 [VPC-18-99] | 39.2
Fc1sc(-c2ccco2)nc1-c1cc2ccc(C(F)(F)F)cc2o1 [VPC-18-100] | 56.3
CN1CCN(c2ccc(-c3nc4ccc(C(F)(F)F)cc4n3C)o2)CC1 [VPC-18-102] | 55.5
FC(F)(F)n1c(-c2ccc(-c3ccccc3)o2)nc2ccccc21 [VPC-18-103] | 95.3
FC(F)(F)c1ccc2cc(-c3csc(-c4cocn4)n3)oc2c1 [VPC-18-106] | 90
Clc1ccc2nc(-c3csc(-c4ccco4)n3)oc2c1 [VPC-18-107] | 66.9
O=C1CCN(c2nc(-c3cc4ccc(Cl)cc4o3)cs2)C1 [VPC-18-109] | 91.5

System: not listed separately
Assay: Liver microsome metabolic stability, MLM
Format: in vitro ADME
Conditions: MLM (single value or second of two), percent remaining at 60 min, 1 μM compound, 0.25 mg/mL protein, 1 mM NADPH
Experimental: Potassium phosphate buffer (Kphos) was prepared by adding 0.647 g potassium phosphate monobasic (KH2PO4) and 3.527 g potassium phosphate dibasic ([…]) to 400 mL of Milli-Q water. pH of the buffer was adjusted to 7.4 and volume was made up to 500 mL.
Microsomes (20 mg/mL) were diluted in KH2PO4 buffer to prepare a concentration of 0.357 mg/mL.
Stock solutions of BRN2 inhibitors were prepared in DMSO at a concentration of 1 mM
A stock solution of 3.33 mM NADPH (3.33×) was prepared by dissolving appropriate amount of NADPH in KH2PO4 buffer.
Total Incubation volume: 100 μL
Compound concentration: 1 μM
Protein Concentration: 0.25 mg/mL
An 1120 μL aliquot of Kphos buffer (50 mM, pH 7.4) containing liver microsomes (0.357 mg/mL) were added to individual 2 mL tubes (final concentration 0.25 mg/mL). Test compounds (1 mM) and positive controls were directly spiked into respective tubes to prepare a concentration of 1.428 μM (final concentration 1 μM). From the above mix, 70 μL was added to individual wells of 96 well reaction plates and pre-incubated in a 37° C. water bath for 5 min. All the reactions were initiated by adding 30 μL of 3.33 mM NADPH (final concentration 1 mM). Reactions without NADPH and buffer controls (minus NADPH) at 0 min and 60 min were also incubated to rule out non-NADPH metabolism or chemical instability in the incubation buffer. All reactions were terminated using 100 μL of ice-cold acetonitrile containing internal standard at 0, 5, 15, 30 and 60 min. The plates were centrifuged at 4000 RPM for 15 min and 100 μL aliquots were submitted for analysis by LC-MS/MS.
Samples were monitored for parent compounds disappearance in MRM mode using LC-MS/MS.
The percent remaining of test compounds and positive control in each sample was determined by considering peak area ratio in the 0 minute sample as 100%. The Half-life of compounds in microsomes is calculated by formula:
Half-life (t½) (min)=0.693/k, where k is gradient of line determined from plot of peak area ratio (compound peak area/internal standard peak area) against time.
In vitro intrinsic clearance (CL'int) (units in mL/min/kg) was calculated using the formula.
[formula] • For liver microsomes, scaling factor used was 45 mg microsomal protein per gm liver. • Indicates liver weight (gm) which varies species wise. For mice the liver weights are 90 gm.
Where data is not available “na” is inserted.

SMILES | Met Stab % (60 mins HLM/MLM) [%]
Clc1ccc2nc(-c3ccc(-c4ccccc4)o3)[nH]c2c1 [VPC-18-92, 6-chloro-2-(5-phenylfuran-2-yl)-1H-benzo[d]imidazole] | 0
Fc1ccc(-c2nc(-c3nc4ccc(C(F)(F)F)cc4o3)cs2)o1 [VPC-18-93] | 26
Clc1ccc2cc(-c3csc(-c4ccn[nH]4)n3)oc2c1 [VPC-18-96, 4-(6-chlorobenzofuran-2-yl)-2-(1H-pyrazol-5-yl)thiazole] | 35
FC(F)(F)c1ccc2cc(-c3csc(-c4ncco4)n3)oc2c1 [VPC-18-98, 2-(4-(6-(trifluoromethyl)benzofuran-2-yl)thiazol-2-yl)oxazole] | 53
Clc1ccc2cc(-c3csc(-c4ncco4)n3)oc2c1 [VPC-18-99] | 28
Fc1sc(-c2ccco2)nc1-c1cc2ccc(C(F)(F)F)cc2o1 [VPC-18-100] | 1
CN1CCN(c2ccc(-c3nc4ccc(C(F)(F)F)cc4n3C)o2)CC1 [VPC-18-102] | 0
FC(F)(F)n1c(-c2ccc(-c3ccccc3)o2)nc2ccccc21 [VPC-18-103] | 0
FC(F)(F)c1ccc2cc(-c3csc(-c4cocn4)n3)oc2c1 [VPC-18-106] | 7
Clc1ccc2nc(-c3csc(-c4ccco4)n3)oc2c1 [VPC-18-107] | 7
O=C1CCN(c2nc(-c3cc4ccc(Cl)cc4o3)cs2)C1 [VPC-18-109] | 4
Clc1ccc2cc(-c3cncc(-c4ccc[nH]4)n3)oc2c1 [VPC-18-130] | 1
Clc1ccc2cc(-c3cccc(-c4ccc[nH]4)c3)oc2c1 [VPC-18-153] | 2
Clc1ccc2cc(-c3csc(-c4nccs4)n3)oc2c1 [VPC-18-165] | 6
Fc1c(Cl)ccc2cc(-c3csc(-c4ccc[nH]4)n3)oc12 [VPC-18-166] | 1

Same assay, conditions: mouse, liver microsomes, pH 7.4; MLM (single value or second of two), 1 μM compound, 0.25 mg/mL protein; read-out: T1/2 in (mins HLM/MLM)

SMILES | half-life at 1 µM [min]
Clc1ccc2nc(-c3ccc(-c4ccccc4)o3)[nH]c2c1 [VPC-18-92, 6-chloro-2-(5-phenylfuran-2-yl)-1H-benzo[d]imidazole] | 6
Fc1ccc(-c2nc(-c3nc4ccc(C(F)(F)F)cc4o3)cs2)o1 [VPC-18-93] | 34
Clc1ccc2cc(-c3csc(-c4ccn[nH]4)n3)oc2c1 [VPC-18-96, 4-(6-chlorobenzofuran-2-yl)-2-(1H-pyrazol-5-yl)thiazole] | 45
FC(F)(F)c1ccc2cc(-c3csc(-c4ncco4)n3)oc2c1 [VPC-18-98, 2-(4-(6-(trifluoromethyl)benzofuran-2-yl)thiazol-2-yl)oxazole] | > 60
Clc1ccc2cc(-c3csc(-c4ncco4)n3)oc2c1 [VPC-18-99] | 36
Fc1sc(-c2ccco2)nc1-c1cc2ccc(C(F)(F)F)cc2o1 [VPC-18-100] | 10
CN1CCN(c2ccc(-c3nc4ccc(C(F)(F)F)cc4n3C)o2)CC1 [VPC-18-102] | 7
FC(F)(F)n1c(-c2ccc(-c3ccccc3)o2)nc2ccccc21 [VPC-18-103] | 9
FC(F)(F)c1ccc2cc(-c3csc(-c4cocn4)n3)oc2c1 [VPC-18-106] | 16
Clc1ccc2nc(-c3csc(-c4ccco4)n3)oc2c1 [VPC-18-107] | 8
O=C1CCN(c2nc(-c3cc4ccc(Cl)cc4o3)cs2)C1 [VPC-18-109] | 13
Clc1ccc2cc(-c3cncc(-c4ccc[nH]4)n3)oc2c1 [VPC-18-130] | 9
Clc1ccc2cc(-c3cccc(-c4ccc[nH]4)c3)oc2c1 [VPC-18-153] | 11
Clc1ccc2cc(-c3csc(-c4nccs4)n3)oc2c1 [VPC-18-165] | 16
Fc1c(Cl)ccc2cc(-c3csc(-c4ccc[nH]4)n3)oc12 [VPC-18-166] | 10
